# Test results taken from patent publication US10556936B2, “Immunogenic proteins and fragments thereof from allergenic mites” (ALK-ABELLÓ A/S, priority 2016, dated 2020).
# System: HDM-specific T cells expanded from PBMCs of HDM-allergic individuals
# Experiment: T cell reactivity of peptides: IFN/IL-5 ELISPOT on in vitro expanded HDM-specific T cells
# Assay type: cell-based, human
# Details: for SFC/donor: individual peptides 10 μg/mL; for % responder: percentage of donors that produced a response against the peptide, 10 μg/mL
# Procedure: Each sequence of an “L” cluster was aligned separately using the MEGA software tool with ClustalW. Fifteen-mer peptides overlapping by 10 amino acids were generated and the last 15-mer peptide was added when the sequence length was not divisible by 5, 14,783 unique peptides remained.
# HLA class II binding predictions optimized for global coverage were performed for the seven class II alleles (HLA-DRB1*03:01, HLA-DRB1*07:01, HLA-DRB1*15:01, HLA-DRB3*01:01, HLA-DRB3*02:02, HLA-DRB4*01:01 and HLA-DRB5*01:01) using the standalone version of the IEDB class II binding prediction tool. The median consensus percentile rank was estimated from the consensus percentile ranks for the seven alleles. Further, peptides with more than ten overlapping amino acids, which appeared because several occurrences of some sequence regions were repeated multiple times in the same sequence, were eliminated (e.g. “[…]” was repeated seven times in one sequence.) Variant peptides were also removed, retaining the better peptide based on the median consensus percentile rank and conservation among the sequences within its respective cluster. Peptides with median consensus percentile rank ≤10.0 and conserved in ≥35% of sequences in the same cluster were finally selected, also including additional selected peptides chosen to maximize DRB1 allele coverage, for a grand total of 2,589 peptides.
# Peptides were purchased from Mimotopes (Clayton, Victoria, Australia) or A and A (San Diego, Calif.) as crude material on a small (1-mg) scale. Individual peptides were resuspended in DMSO at a final concentration of 40 mg/mL. Peptide “megapools” of 30-65 peptides/pool were generated. Following lyophilization, each pool was reconstituted in DMSO so that each peptide was present at a concentration of 4 mg/mL. To facilitate deconvolution of positive megapools, each megapool was further broken down in 2-6 “mesopools” (259 mesopools in total), each containing 8-14 peptides. Each mesopool was then deconvoluted to identify individual positive peptides. To avoid dimerization and polymerization of peptides by intra- and intermolecular disulfide bond formation between cysteine residues, this amino acid were in some instances substituted by a serine residue in the peptides. Such peptides are herein marked with an asterisk (*).
# PBMCs from European HDM-allergic individuals were recruited in the Copenhagen region (defined by clinical history of allergy to house dust mite and specific IgE to group 1 and group 2 major allergens from Der p and/or Der f and with measured specific IgE (CAP) >0.7 kU/L towards Der p/f 1 or Der p/f 2. In addition, PBMCs from 10 US HDM-allergic individuals were recruited in San Diego (defined by Der p extract IgE titers greater than 0.35 kUA/L). PBMCs were isolated from whole blood by density gradient centrifugation according to manufacturers' instructions (Ficoll-Hypaque, Amersham Biosciences, Uppsala, Sweden). Der p- and Der f-specific extract IgE titers were determined using the ImmunoCAP system (Thermo Fisher, Uppsala, Sweden). In a separate series of experiments, pooled plasma from 10 European and 10 American HDM atopic individuals from the San Diego region, respectively, was utilized to run 2D immunoblots to elucidate IgE and IgG reactivity towards the proteins, which had at least one peptide with positive T cell response.
# HDM-specific T cells were expanded in vitro. Briefly, PBMCs from HDM-allergic individuals were stimulated with HDM extract (5 μg/mL) and expanded over 14-17 days with IL-2 (added every 3 days). Cells were harvested on day 14, restimulated with HDM extract (5 μg/mL), individual peptides (10 μg/mL) or peptide pools (5 μg/mL) and screened for […]/IL-5-production by ELISPOT. Criteria for positivity were 100 or 20 spot forming cells (SFCs) per 10^6 PBMCs for peptide pools or single peptides, respectively, p<0.05, and a stimulation index >2.
substance,measurement,value
110 (ILSDWSSMRWTIPSI; Immunogenic fragment) [compound 110],SFC/donor,36 SFC/donor
same,% responder,30%
139 (ELNFKVYEDAAALAK; Immunogenic fragment) [compound 139],SFC/donor,16 SFC/donor
same,% responder,10%
131 (PRIIRFNYDEQTNIL; Immunogenic fragment) [compound 131],SFC/donor,160 SFC/donor
same,% responder,25%
90 (TKLASGVFLFNSNAM; Immunogenic fragment) [compound 90],SFC/donor,11 SFC/donor
same,% responder,5%
144 (RYHKMHLFGEMTMNI; Immunogenic fragment) [compound 144],SFC/donor,10 SFC/donor
same,% responder,10%
119 (RYRFLAHLYTLFYHV; Immunogenic fragment) [compound 119],SFC/donor,158 SFC/donor
same,% responder,10%
123 (YDDIDYVFVRGGSII; Immunogenic fragment) [compound 123],SFC/donor,149 SFC/donor
same,% responder,30%
115 (AFYSFVRNHNTDNAI; Immunogenic fragment) [compound 115],SFC/donor,15 SFC/donor
same,% responder,20%
116 (LGESVIRAARSSLQY; Immunogenic fragment) [compound 116],SFC/donor,30 SFC/donor
same,% responder,15%
136 (DKSKKIHYQFEWKFN; Immunogenic fragment) [compound 136],SFC/donor,2 SFC/donor
same,% responder,5%
148 (TWWFDEAPMLSSSQY; Immunogenic fragment) [compound 148],SFC/donor,21 SFC/donor
same,% responder,10%
71 (LLRLEHFYQRFEDPS; Immunogenic fragment) [compound 71],SFC/donor,8 SFC/donor
same,% responder,5%
137 (HDNTELMKTKDFLLI; Immunogenic fragment) [compound 137],SFC/donor,41 SFC/donor
same,% responder,10%
75 (SLRHLFKSFEIIAVE; Immunogenic fragment) [compound 75],SFC/donor,6 SFC/donor
same,% responder,5%
135 (IIQTKLSIFNDNDKS; Immunogenic fragment) [compound 135],SFC/donor,3 SFC/donor
same,% responder,5%
111 (SSMRWTIPSILNFNM; Immunogenic fragment) [compound 111],SFC/donor,19 SFC/donor
same,% responder,10%
"LGTLRNGATNHFLSK (Immunogenic fragment) [Peptide 183, fragment of A0023 Der f]",SFC/donor,163 SFC/donor
same,% responder,20%
58 (ITRLREAMGVMQHHD; Immunogenic fragment) [compound 58],SFC/donor,8 SFC/donor
same,% responder,5%
84 (IHQLNDQVLRLKFID; Immunogenic fragment) [compound 84],SFC/donor,3 SFC/donor
same,% responder,5%
78 (ELTLGANQPISSLKN; Immunogenic fragment) [compound 78],SFC/donor,6 SFC/donor
same,% responder,5%
56 (LKKHYADLAARPFFP; Immunogenic fragment) [compound 56],SFC/donor,8 SFC/donor
same,% responder,5%
85 (DQVLRLKFIDANQKR; Immunogenic fragment) [compound 85],SFC/donor,222 SFC/donor
same,% responder,20%
152 (LRGAFSESTAVYPSA; Immunogenic fragment) [compound 152],SFC/donor,5 SFC/donor
same,% responder,5%
